Experimental data taken from PMC8022858, “Discovery of bone morphogenetic protein 7-derived peptide sequences that attenuate the human osteoarthritic chondrocyte phenotype” (Molecular Therapy. Methods & Clinical Development, 2021).

What was measured:
[1] = tested on: CAGA12 reporter (SMAD3 dependent) in SW1353 chondrocytic cells; assay: CAGA12 firefly luciferase reporter assay; type: cell-based; conditions: 8 h peptide exposure, firefly normalized to Gaussia luciferase, relative to control (Figure 5B)
Method: Figure 5 Molecular characterization of peptides p[63−82] and p[113−132] (A) A pool of OA-HACs (n = 4 donors) was transfected with a scrambled siRNA or with an NKX3-2 siRNA (100 nM siRNA) and cultured for 24 h. Cultures were then exposed to peptide p[63−82] or p[113−132] (100 nM peptide). Samples were harvested 24 h later and analyzed for the expression of the indicated mRNAs (normalized to 28S rRNA). (B) SW1353 chondrocytic cells were transfected with BRE (SMAD1/5/8 reporter) or CAGA12 (SMAD2/3 reporter) firefly luciferase-reporter plasmids. A CMV-Gaussia plasmid was cotransfected as a transfection control. Cells were then cultured for 24 h and subsequently exposed to control, p[63−82], or p[113−132] for 8 h. Firefly and Gaussia bioluminescence were measured in cells and medium (respectively), and relative light units (RLUs) of firefly luciferase were normalized for the Gaussia luciferase signal. The normalized firefly luciferase signal of the control condition was set at 1, and peptide conditions were calculated relative to the control condition (FL/GL). Error bars represent mean ± SEM; statistical significance for peptide conditions versus siScrambled or siNKX3-2 (A) or control condition (B) as determined by unpaired two-tailed Student’s t test is represented as ∗p < 0.05, ∗∗p < 0.01, and ∗∗∗p < 0.001. […]

[2] = tested on: OA-HACs; assay: sGAG content of OA-HAC cultures (DMB assay); type: cell-based, human; conditions: three individual OA-HAC donors, 100 nM peptide, 24 h, normalized to total protein (Figure 2D)
Method: Figure 2 Bioactivity of BMP7-derived peptides p[63−82] and p[113−132] on OA-HACs Complete peptide library screening quantitative real-time PCR dataset for peptides p[63−82] and p[113−132] is presented. (A) SOX9, COL2A1, and NKX3-2 mRNA expression in the 18 OA-HAC pool exposed to 1,000, 100, 10, or 1 nM of peptide p[63−82] and p[113−132] is shown and presented relative to control (black bars) and alongside full-length BMP7 (white bars). (B) Similar to (A) but for chondrocyte hypertrophy-associated genes RUNX2, COL10A1, and ALPL. (C) Similar to (A) but for cartilage extracellular matrix remodeling-associated genes MMP13 and ADAMTS5 and inflammation-related genes COX-2 and IL-6. […] (G) In the same OA-HAC pool of 18 OA-HAC donors from the peptide library screening, sequence dependency of peptides p[63−82] and p[113−132] was determined by exposing the OA-HAC pool to scrambled versions of peptides p[63−82] and p[113−132] […] Error bars represent mean ± SEM, and statistical significance for peptide conditions or BMP7 versus control condition as determined by unpaired two-tailed Student’s t test is represented as ∗p < 0.05, ∗∗p < 0.01, and ∗∗∗p < 0.001.
The sGAG content was measured using a modified dimethyl methylene blue (DMB) assay.[58] The absorbance of samples was read at 540 and 595 nm using a spectrophotometer (Multiskan FC; Thermo Fisher Scientific). […]

Substance	CAGA12-reporter activity [1]	sulfated glycosaminoglycan (sGAG) content [2]
H-SVLYFDDSSNVILKKYRNMV-OH [p[113−132]]	diminished	–
H-AAYYSEGESAFPLNSYMNAT-OH [p[63−82]]	diminished	increased
